{
  "source": "patent US8674063B2",
  "about": "“Chimerical peptidic molecules with antiviral properties against the viruses of the Flaviviridae family” (Centro de Ingenieria Genetica y Biotecnologia, priority 2006, dated 2014)",
  "format_in_all_cases": "cell-based",
  "key": {"[1]": {"test": "Cytotoxic effect (CTE) of peptides on Vero cell monolayer", "details": "Vero cell monolayer; Vero cells; read-out: CTE: peptide concentration causing damage to 50% of the monolayer"}, "Vero cells": {"tested_on": "Vero cells", "test": "Cytotoxic effect (CTE) of peptides on Vero cell monolayer", "details": "at the assayed conditions"}, "[2]": {"tested_on": "dengue 2 virus (DV2, strain S16803)", "test": "Plaque reduction neutralization assay (PRNT) in Vero cells, dengue 2 virus", "details": "for antiviral activity (inhibition of infection by DV2, plaque reduction), in words: Vero cells", "description": "Vero cells were grown in 24-well plates to approximately 90% confluence, and washed twice with MEM medium without FCS. Peptide dilutions were added according to the particular assay and incubated typically during 1 h at 37° C. After the incubation, the virus was added at a multiplicity of infection of 0.1, followed by a subsequent incubation for 1 hour at 37 C. In certain experiments the peptides were added simultaneously with the virus (without preincubation) or the peptide preincubation time was modified. At the end of the second incubation, the unbound virus was eliminated by washing, and the cells were incubated for 5 days at 37 C in high density medium (MEM supplemented with non essential amino acids, 1% FCS, 1% carboxymethylcellulose) in order to propitiate the appearance of lytic plaques. The plaques were visualized by staining with 0.1% Naphtol Blue Black in 0.15 Mol/L sodium acetate. Two replicates were used per experimental point in each assay, and three independent determinations were performed. The inhibition percentage was calculated according to the expression: […]\nIn order to determine the role of the cell penetrating peptide and the ER retention signal on the antiviral activity of peptides of the present invention we tested peptides No 1, 2, 3 and 4 of table 1 for inhibition of the viral infection by VD2 in Vero cells, using the assay described in the example 2."}},
  "data": [
    {"molecule": "CC[C@H](C)[C@H](NC(=O)[C@H](CCCCN)NC(=O)[C@@H](NC(=O)[C@H](CCC(N)=O)NC(=O)[C@@H](N)CCCNC(=N)N)[C@@H](C)CC)C(=O)N[C@@H](Cc1c[nH]c2ccccc12)C(=O)N[C@@H](Cc1ccccc1)C(=O)N[C@@H](CCC(N)=O)C(=O)N[C@@H](CC(N)=O)C(=O)N[C@@H](CCCNC(=N)N)C(=O)N[C@@H](CCCNC(=N)N)C(=O)N[C@@H](CCSC)C(=O)N[C@@H](CCCCN)C(=O)N[C@@H](Cc1c[nH]c2ccccc12)C(=O)N[C@@H](CCCCN)C(=O)N[C@@H](CCCCN)C(=O)NCC(=O)NCC(=O)NCC(=O)N[C@@H](CO)C(=O)N[C@@H](CO)C(=O)N1CCC[C@H]1C(=O)N[C@H](C(=O)N[C@@H](CC(C)C)C(=O)N[C@@H](CO)C(=O)N[C@H](C(=O)N[C@H](C(=O)N[C@H](C(=O)N[C@@H](CO)C(=O)N[C@@H](CCC(=O)O)C(=O)N[C@@H](CC(=O)O)C(=O)NCC(N)=O)[C@@H](C)CC)[C@@H](C)O)[C@@H](C)CC)[C@@H](C)CC", "note": "[NS2Bden2-pP2]", "values": [
      {"measurement": "CC50", "setting": "[1]", "value": 50, "unit": "µM"},
      {"measurement": "toxicity on the cells, in words", "setting": "Vero cells", "value": "significant cytotoxicity"}
    ]},
    {"molecule": "CC[C@H](C)[C@H](NC(=O)[C@H](CO)NC(=O)[C@H](CC(C)C)NC(=O)[C@@H](NC(=O)[C@@H]1CCCN1C(=O)[C@H](CO)NC(=O)[C@H](CO)NC(=O)CNC(=O)CNC(=O)CNC(=O)[C@H](CCC(N)=O)NC(=O)[C@@H]1CCCN1C(=O)[C@@H]1CCCN1C(=O)[C@H](CCCNC(=N)N)NC(=O)[C@H](CCCNC(=N)N)NC(=O)[C@H](CCCNC(=N)N)NC(=O)[C@H](CCC(N)=O)NC(=O)[C@H](CCCNC(=N)N)NC(=O)[C@H](CCCNC(=N)N)NC(=O)[C@H](CCCCN)NC(=O)[C@H](CCCCN)NC(=O)[C@H](CCCNC(=N)N)NC(=O)CNC(=O)[C@@H](N)Cc1ccc(O)cc1)[C@@H](C)CC)C(=O)N[C@H](C(=O)N[C@H](C(=O)N[C@@H](CO)C(=O)N[C@@H](CCC(=O)O)C(=O)N[C@@H](CC(=O)O)C(=O)NCC(N)=O)[C@@H](C)CC)[C@@H](C)O", "note": "[NS2Bden2+TAT]", "values": [
      {"measurement": "CC50", "setting": "[1]", "value": 150, "unit": "µM"}
    ]},
    {"molecule": "segment [I] of peptide NS2Bden2+TAT (SSPILSITISEDG), lacks the cell penetrating segment", "values": [
      {"measurement": "antiviral activity (inhibition of infection by DV2, plaque reduction), in words", "setting": "[2]", "value": "does not inhibit"},
      {"measurement": "antiviral activity (inhibition of infection by DV2, plaque reduction), in words", "setting": "[2]; listed as NS3pro protease activation inhibitor segment [I]", "value": "does not show antiviral activity in vitro"}
    ]},
    {"molecule": "TAT peptide: YGRKKRRQRRRPPQ; SEQ ID NO 64; cell penetrating TAT peptide, negative control (Description of the Artificial Sequence chimerical peptide) [reference compound]", "values": [
      {"measurement": "number of plaques in presence of peptide", "setting": "[2]; DV2, Vero cells, FIG. 2B", "value": "increase in the number of plaques"},
      {"measurement": "antiviral activity (inhibition of infection by DV2, plaque reduction), in words", "setting": "[2]", "value": "did not show antiviral activity"}
    ]},
    {"molecule": "CC[C@H](C)[C@H](NC(=O)[C@H](CO)NC(=O)[C@H](CC(C)C)NC(=O)[C@@H](NC(=O)[C@@H]1CCCN1C(=O)[C@H](CO)NC(=O)[C@H](CO)NC(=O)CNC(=O)CNC(=O)CNC(=O)[C@H](CCCNC(=N)N)NC(=O)[C@H](CCCNC(=N)N)NC(=O)[C@H](CCCNC(=N)N)NC(=O)[C@H](CCCNC(=N)N)NC(=O)[C@H](CCCNC(=N)N)NC(=O)[C@H](CCCNC(=N)N)NC(=O)[C@H](CCCNC(=N)N)NC(=O)[C@H](CCCNC(=N)N)NC(=O)[C@H](CCCNC(=N)N)NC(=O)[C@@H](N)CCCNC(=N)N)[C@@H](C)CC)C(=O)N[C@H](C(=O)N[C@H](C(=O)N[C@@H](CO)C(=O)N[C@@H](CCC(=O)O)C(=O)N[C@@H](CC(=O)O)C(=O)NCC(N)=O)[C@@H](C)CC)[C@@H](C)O", "note": "[NS2Bden2-pRR]", "values": [
      {"measurement": "CC50", "setting": "[1]", "value": "> 50", "unit": "µM"}
    ]},
    {"molecule": "CC[C@H](C)[C@H](NC(=O)[C@H](CO)NC(=O)[C@H](CC(C)C)NC(=O)[C@@H](NC(=O)[C@@H]1CCCN1C(=O)[C@H](CO)NC(=O)[C@H](CO)NC(=O)CNC(=O)CNC(=O)CNC(=O)[C@H](CCC(N)=O)NC(=O)[C@@H]1CCCN1C(=O)[C@@H]1CCCN1C(=O)[C@H](CCCNC(=N)N)NC(=O)[C@H](CCCNC(=N)N)NC(=O)[C@H](CCCNC(=N)N)NC(=O)[C@H](CCC(N)=O)NC(=O)[C@H](CCCNC(=N)N)NC(=O)[C@H](CCCNC(=N)N)NC(=O)[C@H](CCCCN)NC(=O)[C@H](CCCCN)NC(=O)[C@H](CCCNC(=N)N)NC(=O)CNC(=O)[C@@H](N)Cc1ccc(O)cc1)[C@@H](C)CC)C(=O)N[C@H](C(=O)N[C@H](C(=O)N[C@@H](CO)C(=O)N[C@@H](CCC(=O)O)C(=O)N[C@@H](CC(=O)O)C(=O)NCC(=O)NCC(=O)NCC(=O)N[C@@H](CCCCN)C(=O)N[C@@H](CC(=O)O)C(=O)N[C@@H](CCC(=O)O)C(=O)N[C@@H](CC(C)C)C(=O)O)[C@@H](C)CC)[C@@H](C)O", "note": "[NS2Bden2 + TAT + KDEL]", "values": [
      {"measurement": "CC50", "setting": "[1]", "value": "> 150", "unit": "µM"}
    ]}
  ]
}
